What was measured:
Experiment in all cases: Example B1 herbicidal action, post-emergence, 96-cell seed trays, climatic chamber
Assay type in all cases: in vivo
[1] = system: Amaranthus retroflexus (AMARE); conditions: Application post-emergence, 1000 mg/l spray equivalent to 1000 g/ha, evaluated after 9 days
Protocol: (§1) Seeds of a variety of test species were sown in sterilised standard soil in seed trays each having 96 cells. After cultivation for 8 to 9 days cultivation (post-emergence) under controlled conditions in a climatic chamber (cultivation at 23/17° C., day/night; 13 hours light; 50-60% humidity), the plants were treated with an aqueous spray solution of 1000 mg/l of the active ingredient dissolved in 10% DMSO (dimethyl sulfoxide, CAS RN 67-68-5) as a solvent, equivalent to 1000 g/ha. The plants were grown in the climatic chamber after application at (24/19° C., day/night; 13 hours light; 50-60% humidity) and watered twice daily. After 9 days until the test was evaluated (100=total damage to plant, 0=no damage to plant)

Solanum nigrum (SOLNI) = conditions: Application post-emergence, 1000 mg/l spray equivalent to 1000 g/ha, evaluated after 9 days (100=total damage to plant, 0=no damage to plant)
Protocol: as §1

Stellaria media (STEME) = conditions: Application post-emergence, 1000 mg/l spray equivalent to 1000 g/ha, evaluated after 9 days (100=total damage to plant, 0=no damage to plant)
Protocol: as §1

[2] = system: Nasturtium officinale (NAAOF); parameters: scale not given here; conditions: Application post-emergence, 1000 mg/l spray equivalent to 1000 g/ha, evaluated after 9 days (100=total damage to plant, 0=no damage to plant)
Protocol: as §1

Compound | damage to plant, Amaranthus retroflexus (AMARE) [1] | damage to plant, Solanum nigrum (SOLNI) (Solanum nigrum (SOLNI)) | damage to plant, Stellaria media (STEME) (Stellaria media (STEME)) | damage to plant, Nasturtium officinale (NAAOF) [2]
CCC(=O)Oc1c(-c2ccc(F)cc2Cl)c(=O)n(C)c2nccnc12 [Compound C44] | 8 | 2 | 6 | 4
CCn1c(=O)c(-c2cccc(Cl)c2Cl)c(OC(=O)C(C)C)c2nccnc21 [Compound C45] | 8 | 6 | 9 | 8
CC(C)Cn1c(=O)c(-c2ccccc2OC(F)(F)F)c(OC(=O)C(C)(C)C)c2nccnc21 [Compound C46] | 0 | 4 | 1 | 1
CC(C)(C)C(=O)Oc1c(-c2ccccc2OC(F)(F)F)c(=O)n(CC2CC2)c2nccnc12 [Compound C47] | 4 | 3 | 0 | 1
CC(C)Cn1c(=O)c(-c2c(F)ccc(F)c2Cl)c(OC(=O)C(C)(C)C)c2nccnc21 [Compound C48] | 0 | 1 | 1 | 0
CC(C)(C)C(=O)Oc1c(-c2c(F)ccc(F)c2Cl)c(=O)n(CC2CC2)c2nccnc12 [Compound C49] | 3 | 0 | 3 | 0
Cn1c(=O)c(-c2ccccc2Cl)c(OC(=O)C(C)(C)C)c2nccnc21 [Compound C50] | 4 | 4 | 7 | 7
Cn1c(=O)c(-c2c(F)ccc(F)c2Cl)c(OC(=O)c2ccc([N+](=O)[O-])cc2)c2nccnc21 [Compound C51] | 7 | 0 | 7 | 7
Cn1c(=O)c(-c2ccc3ccccc3c2)c(OC(=O)C(C)(C)C)c2nccnc21 [Compound C52] | 0 | 0 | 3 | 3
Cn1c(=O)c(-c2c(F)ccc(F)c2Cl)c(OC(=O)CC(C)(C)C)c2nccnc21 [Compound C53] | 7 | 3 | 5 | 7
Cn1c(=O)c(-c2c(F)ccc(F)c2F)c(OC(=O)C(C)(C)C)c2nccnc21 [Compound C55] | 4 | 0 | 4 | 0
CC(C)C(=O)c1c(-c2c(Cl)cccc2Cl)c(=O)n(C)c2nccnc12 [Compound C56] | 8 | 0 | 7 | 7
CCn1c(=O)c(-c2c(F)ccc(F)c2F)c(OC(=O)C(C)C)c2nccnc21 [Compound C57] | 5 | 2 | 7 | 6
CC(C)C(=O)Oc1c(-c2c(F)ccc(F)c2F)c(=O)n(C)c2nccnc12 [Compound C58] | 6 | 0 | 8 | 7
CCn1c(=O)c(-c2c(F)ccc(F)c2F)c(OC(=O)C(C)(C)C)c2nccnc21 [Compound C59] | 6 | 0 | 7 | 7
CC(C)C(=O)Oc1c(-c2c(F)ccc(F)c2Cl)c(=O)n(CC2CC2)c2nccnc12 [Compound C60] | 7 | 7 | 5 | 8
Cn1c(=O)c(-c2ccc(Cl)cc2Cl)c(OC(=O)C(C)(C)C)c2nccnc21 [Compound C61] | 8 | 2 | 8 | 8

Compound | damage to plant, Amaranthus retroflexus (AMARE) [1] | damage to plant, Solanum nigrum (SOLNI) (Solanum nigrum (SOLNI)) | damage to plant, Stellaria media (STEME) (Stellaria media (STEME)) | damage to plant, Nasturtium officinale (NAAOF) [2]
CCn1c(=O)c(-c2ccc(Cl)cc2Cl)c(OC(=O)C(C)(C)C)c2nccnc21 [Compound C62] | 7 | 1 | 8 | 8
CC(C)C(=O)Oc1c(-c2ccc(Cl)cc2Cl)c(=O)n(C)c2nccnc12 [Compound C63] | 5 | 5 | 8 | 9
CCn1c(=O)c(-c2ccc(Cl)cc2Cl)c(OC(=O)C(C)C)c2nccnc21 [Compound C64] | 6 | 8 | 10 | 10
CCc1cc(C)cc(CC)c1-c1c(OC(=O)C(C)C)c2nccnc2n(C)c1=O [Compound C65] | 4 | 3 | 6 | 7
CCn1c(=O)c(-c2cccc(Cl)c2)c(OC(C)=O)c2nccnc21 [Compound C66] | 0 | 0 | 7 | 7
CCn1c(=O)c(-c2ccc(Cl)cc2)c(OC(C)=O)c2nccnc21 [Compound C67] | 4 | 0 | 6 | 8
CC(C)C(=O)Oc1c(-c2cc(Cl)cc(Cl)c2Cl)c(=O)n(C)c2nccnc12 [Compound C68] | 0 | 0 | 5 | 5
COc1ccccc1-c1c(OC(=O)C(C)C)c2nccnc2n(C)c1=O [Compound C69] | 0 | 0 | 6 | 5
CCn1c(=O)c(-c2ccccc2OC)c(OC(=O)C(C)C)c2nccnc21 [Compound C70] | 0 | 0 | 3 | 4
CC(C)C(=O)Oc1c(-c2c(F)ccc(F)c2Cl)c(=O)n(C)c2ncc[n+]([O-])c12 [Compound C71, isobutyric acid 7-(2-chloro-3,6-difluorophenyl)-5-methyl-6-oxo-1-oxy-5,6-dihydropyrido[2,3-]pyrazin-8-yl ester] | 0 | 2 | 8 | 7
CCn1c(=O)c(-c2ccc(Cl)c(Cl)c2)c(OC(C)=O)c2nccnc21 [Compound C72] | 0 | 0 | 2 | 8
CC#CCOC(=O)Oc1c(-c2c(F)ccc(F)c2Cl)c(=O)n(C)c2nccnc12 [Compound C73] | 4 | 0 | 4 | 6
Cc1cc(C)c(-c2c(OC(=O)C(C)C)c3nccnc3n(C)c2=O)c(C)c1 [Compound C75] | 3 | 7 | 7 | 6
CC(C)C(=O)Oc1c(-c2c(Cl)cccc2C(F)(F)F)c(=O)n(C)c2nccnc12 [Compound C76] | 7 | 4 | 6 | 6
CCn1c(=O)c(-c2cccc(C(F)(F)F)c2Cl)c(OC(=O)C(C)C)c2nccnc21 [Compound C78] | 6 | 4 | 6 | 8
CC(C)C(=O)Oc1c(-c2c(Cl)ccc(Cl)c2Cl)c(=O)n(C)c2nccnc12 [Compound C79] | 6 | 6 | 7 | 5
CCn1c(=O)c(-c2c(Cl)cccc2C(F)(F)F)c(OC(=O)C(C)C)c2nccnc21 [Compound C80] | 7 | 2 | 8 | 6
